Results reported in article PMC4861708 (Frontiers in Cell and Developmental Biology, 2016).
≈ marks a conversion by molar mass, not a printed value. Blank lines part the entries; values can stand above or below the molecule they belong to. Where a SMILES comes first, the peptide text is derived from it. [ ]: non-standard residue; d: D form. The star is where a group is joined. Orn(α-tetramethylguanidino) = CN(C)C(=N[C@@H](CCCN)C(=O)*)N(C)C; Orn = NCCC[C@H](N)C(=O)O

Legend:
P. aeruginosa elastase [1] = experiment: P. aeruginosa elastase (0.012 U/μL) in Tris-HCl (5 mmol/L, pH 8.3); settings: 37°C, up to 6 h
[2] = system: K. pneumoniae DSM 681 (ATCC 10031); format: cell-based, Klebsiella pneumoniae; settings: DSM 681, 24 h
Description: (§1) MICs of P. aeruginosa strains DSM 1117 (ATCC 27853), DSM 3227 (ATCC 19429), and DSM 9644 were determined in a microdilution broth assay using 50 or 100% MHB (11.5 and 23 g/L MHB, respectively) whereas MICs of E. coli DSM 1103 (ATCC 25922) and K. pneumoniae DSM 681 (ATCC 10031) were determined in TSB (30 g/L TSB). Peptides (1 g/L in water) were serially two-fold diluted in a 96-well microtiter plate (PS, sterile, flat bottom) in 50 μL of the corresponding medium to final concentrations of 512–4 μg/mL. Bacteria were grown in nutrient broth overnight and diluted to a cell concentration of 1.5 × 10^7 cells/mL in the corresponding medium. Cell densities were determined by using the McFarland standard as reference. An aliquot (50 μL) of the cell culture was added to each well and incubated (37°C, 24 h). The OD595 was determined in a SpectraMax 340PC (Molecular Devices, Sunnyvale, USA). Additionally, MIC values were also determined for high bacteria densities (5 × 10^8 cells/mL) corresponding to the conditions used for TEM, as described above.

HEK293 cells = experiment: in vitro; format: cell-based, human; settings: 24 h
Description: (§2) Human embryonic kidney (HEK293) and HeLa cells were cultured in Dulbecco's modified Eagle's/Ham's F-12 medium [DMEM/F-12 (1:1)] supplemented with FBS (10% v/v), penicillin, and streptomycin (1000 units each). Primary rat cardiomyocytes (Innoprot, Elexalde Derio, Spain) were grown in medium supplemented with FBS (20% v/v), horse serum (5% v/v), L-glutamine (2 mmol/L), sodium pyruvate (2 mmol/L), MEM non-essential amino acids (Gibco, 0.1 mmol/L), penicillin, and streptomycin (1000 units each). Surfaces for cardiomyocyte growth were coated with attachment factor first. Cells (20,000/well) were seeded into a 96-well plate (PS, sterile, flat bottom), incubated for 24 h (37°C, 5% CO2), and washed twice with PBS (100 μl/well) prior to adding colorless medium (88 μL) and peptide solution (12 μL; 5, 2.5, 1.25, […], and 0.625 g/L in PBS). Positive controls were triton X-100 (1%, v/v) and melittin (60 mg/L) as lytic peptide, whereas PBS (12%, v/v) served as negative control. After an incubation period of 24 h, supernatant (25 μL) was mixed with lactate dehydrogenase (LDH) substrate (175 μL; 0.57 mmol/L sodium pyruvate, 0.24 mmol/L NADH disodium salt, 32 mmol/L potassium dihydrogen phosphate, 66 mmol/L dipotassium phosphate) in 96-well plates (PS, sterile, flat bottom). Absorbance was recorded at 340 nm every 3 min for 30 min on the Paradigm microplate reader. Due to the total release of LDH upon triton X-100 treatment, the control contained high LDH concentrations resulting in a fast substrate turnover that was only linear for the first 6 min.
(§3) The MTT cell viability assay relied on the same cell culture. Remaining medium was replaced by a mixture of fresh colorless medium (100 μL) and MTT (10 μL; 5 g/L in PBS) and incubated for 4 h (37°C, 5% CO2). A solution of sodium dodecyl sulfate (100 μL; 10%, w/v) dissolved in hydrochloric acid (10 mmol/L) was added, incubated (16 h), and the absorbance recorded at 590 nm relative to the reference at 650 nm (Paradigm microplate reader). The relative cell viability was calculated by [(ODPeptide − ODTriton)/(ODPBS − ODTriton)] × 100% and half-maximal inhibitory concentrations (IC50) with an Excel-template from cell biology protocols (www.sciencegateway.org/ protocols/cellbio/drug/hcic50.htm). For statistical analysis an unpaired t-test was applied using GraphPad Prism 5.0.

in vitro [3] = format: cell-based, human; settings: human
Description: as §2, §3

HeLa cells = experiment: in vitro; format: cell-based; settings: 24 h
Description: as §2, §3

in vitro [4] = format: cell-based; settings: human
Description: as §2, §3

[5] = system: Primary rat cardiomyocytes; experiment: in vitro; format: cell-based; settings: 24 h
Description: as §2, §3

[6] = system: E. coli DSM 1103 (ATCC 25922); format: cell-based, Escherichia coli; settings: DSM 1103, 24 h
Description: as §1

in vitro [7] = settings: mouse, mouse serum, Half-life time mouse serum, 37°C
Description: Peptide solutions (1 g/L) were added to mouse serum to obtain final concentrations of 70 mg/L peptide and incubated under constant shaking at 37°C. After 0, 1, 2, 3, and 6 h aliquots (95 μL) were precipitated with aqueous TCA (25 μL, 15% w/v), incubated for 10 min on ice, and centrifuged (5 min, 12,000 × g, Eppendorf mini spin centrifuge). An aliquot of the supernatant (95 μL) was neutralized with sodium hydroxide (8 μL, 1 mol/L) and diluted with aqueous acetonitrile solution (3% acetonitrile, 0.1% TFA; 200 μL). Peptides were quantified by the peak areas obtained by analytical RP-HPLC on a Jupiter C18-column (ID: 2 mm) using a linear aqueous acetonitrile gradient with 0.1% (v/v) TFA (absorbance recorded at 214 nm). Peak areas of all time points were normalized to the initial peak area obtained after “0 min incubation” (= 100%). Experiments were carried out as triplicates in parallel and half-life times were calculated using GraphPad Prism 5.0.

[8] = system: P. aeruginosa DSM 1117 (ATCC 27853); set-up: method as in Bluhm et al., 2015; settings: 50% MHB; ref Bluhm et al., 2015; cited from earlier work
P. aeruginosa elastase [9] = biological target: T1, P. aeruginosa elastase (Pseudomonas aeruginosa, UniProt P14756); experiment: Elastase assay (proteolytic stability); format: in vitro ADME; settings: Pseudomonas aeruginosa; 0.5 g/L peptide, elastase 12 units/mL, Tris-HCl pH 8.3, 37°C; read-out: Half-life time with Pseudomonas elastase
T1 construct: purchased Merck (Darmstadt, Germany)
Description: A stock solution of P. aeruginosa elastase (0.26 U/μL) was prepared in Tris-HCl (5 mmol/L, pH 8.3) and stored at −80°C. Peptides (0.5 g/L in 5 mmol/L Tris-HCl, pH 8.3) were incubated with elastase (0.012 U/μL) at 37°C under constant shaking (450 rpm) for 0, 0.5, 2, 4, and 6 h. Aliquots (10.5 μL) were precipitated with a mixture of acetonitrile and ethanol (1:1 v/v) containing 0.1% TFA (21 μL), centrifuged, the supernatant transferred into a new tube, and dried in vacuum. Samples were dissolved in aqueous acetonitrile (3% v/v) containing TFA (0.1% v/v) and analyzed by RP-HPLC using the conditions described above.

T1 sequence (P14756 198-498): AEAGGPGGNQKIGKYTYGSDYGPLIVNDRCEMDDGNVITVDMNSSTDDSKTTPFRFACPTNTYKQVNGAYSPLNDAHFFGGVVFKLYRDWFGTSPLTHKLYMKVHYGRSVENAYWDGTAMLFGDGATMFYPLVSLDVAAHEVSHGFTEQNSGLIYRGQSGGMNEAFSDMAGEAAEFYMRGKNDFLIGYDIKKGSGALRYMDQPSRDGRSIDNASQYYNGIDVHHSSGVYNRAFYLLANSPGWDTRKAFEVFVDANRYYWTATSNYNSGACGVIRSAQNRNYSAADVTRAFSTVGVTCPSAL

Molecule: gu-ONNRPVYIPRPRPPHPRL-OH
not cleaved (P. aeruginosa elastase [1]): fully recovered after an incubation period of 6 h

Molecule: CC[C@H](C)[C@H](NC(=O)[C@H](CCCN)N=C(N(C)C)N(C)C)C(=O)N[C@@H](CCCN)C(=O)N[C@H](C(=O)N[C@@H](CCCN)C(=O)N[C@H](C(=O)N[C@@H](CCCN)C(=O)N[C@@H](CCCNC(=N)N)C(=O)N1CCC[C@H]1C(=O)N[C@H](C(=O)N[C@@H](Cc1ccc(O)cc1)C(=O)N[C@@H](CCCN)C(=O)N1CCC[C@H]1C(=O)N[C@@H](CCCNC(=N)N)C(=O)N1CCC[C@H]1C(=O)N[C@@H](CCCNC(=N)N)C(=O)N1CCC[C@H]1C(=O)N1CCC[C@H]1C(=O)N[C@@H](Cc1c[nH]cn1)C(=O)N1CCC[C@H]1C(=O)N[C@@H](CCCNC(=N)N)C(=O)N[C@@H](CC(C)C)C(=O)O)C(C)C)[C@@H](C)CC)[C@@H](C)CC [Api796, GuO(IO)3RPVYOPRPRPPHPRL] ({Orn(α-tetramethylguanidino)}-I[Orn]I[Orn]I[Orn]RPVY[Orn]PRPRPPHPRL-OH)
MIC K. pneumoniae DSM 681 [2]: 16 µg/mL (≈ 5.83 µM)
IC50 on cell viability (HEK293 cells): >600 µg/mL
viability at 24 h, 0.6 g/L (in vitro [3]): ~60%
IC50 on cell viability (HeLa cells): >600 µg/mL
viability at 24 h, 0.6 g/L (in vitro [4]): 61 ± 14%
IC50 on cell viability [5]: >600 µg/mL
MIC E. coli ATCC 25922 [6]: 8 µg/mL (≈ 2.91 µM)
half-life at 70 mg/L (in vitro [7]): 4.15 h

Molecule: CC(C)C[C@H](NC(=O)[C@H](CCCNC(=N)N)NC(=O)[C@@H]1CCCN1C(=O)[C@H](Cc1c[nH]cn1)NC(=O)[C@@H]1CCCN1C(=O)[C@@H]1CCCN1C(=O)[C@H](CCCNC(=N)N)NC(=O)[C@@H]1CCCN1C(=O)[C@H](CCCNC(=N)N)NC(=O)[C@@H]1CCCN1C(=O)[C@H](CCCN)NC(=O)[C@H](Cc1ccc(O)cc1)NC(=O)[C@@H](NC(=O)[C@@H]1CCCN1C(=O)[C@H](CCCNC(=N)N)NC(=O)[C@H](CCCN)NC(=O)[C@H](Cc1c[nH]c2ccccc12)NC(=O)[C@H](CCCN)NC(=O)[C@H](Cc1c[nH]c2ccccc12)NC(=O)[C@H](CCCN)N=C(N(C)C)N(C)C)C(C)C)C(=O)O [Api793, guO(WO)2RPVYOPRPRPPHPRL] ({Orn(α-tetramethylguanidino)}-W[Orn]W[Orn]RPVY[Orn]PRPRPPHPRL-OH)
MIC K. pneumoniae DSM 681 [2]: 16 µg/mL (≈ 6 µM)
IC50 on cell viability (HEK293 cells): 640 ± 50 µg/mL (≈ 240 µM)
IC50 on cell viability (HeLa cells): 640 ± 150 µg/mL (≈ 240 µM)
IC50 on cell viability [5]: >600 µg/mL
MIC E. coli ATCC 25922 [6]: 8 µg/mL (≈ 3 µM)
half-life at 70 mg/L (in vitro [7]): 4.1 h

Molecule: gu-O(IO)2RPVYOPRPRPPHPRL-OH
not cleaved (P. aeruginosa elastase [1]): 92 ± 4% detected after 30 min and for all later time points (6 h)

MIC K. pneumoniae DSM 681 [2]: 8 µg/mL (≈ 3.49 µM)
MIC E. coli ATCC 25922 [6]: 8 µg/mL (≈ 3.49 µM)
Molecule: CC[C@H](C)[C@H](NC(=O)[C@H](CCCN)N=C(N(C)C)N(C)C)C(=O)N[C@@H](CCCN)C(=O)N[C@@H](CCCNC(=N)N)C(=O)N1CCC[C@H]1C(=O)N[C@H](C(=O)N[C@@H](Cc1ccc(O)cc1)C(=O)N[C@@H](CCCN)C(=O)N1CCC[C@H]1C(=O)N[C@@H](CCCNC(=N)N)C(=O)N1CCC[C@H]1C(=O)N[C@@H](CCCNC(=N)N)C(=O)N1CCC[C@H]1C(=O)N1CCC[C@H]1C(=O)N[C@@H](Cc1c[nH]cn1)C(=O)N1CCC[C@H]1C(=O)N[C@@H](CCCNC(=N)N)C(=O)N[C@@H](CC(C)C)C(=O)O)C(C)C [Api755, gu-OIORPVYOPRPRPPHPRL-OH, reference compound] ({Orn(α-tetramethylguanidino)}-I[Orn]RPVY[Orn]PRPRPPHPRL-OH)
times more active than Api137 against P. aeruginosa [8]: 16

MIC K. pneumoniae DSM 681 [2]: 8 µg/mL (≈ 3.38 µM)
MIC E. coli ATCC 25922 [6]: 8 µg/mL (≈ 3.38 µM)
Molecule: CC(C)C[C@H](NC(=O)[C@H](CCCNC(=N)N)NC(=O)[C@@H]1CCCN1C(=O)[C@H](Cc1c[nH]cn1)NC(=O)[C@@H]1CCCN1C(=O)[C@@H]1CCCN1C(=O)[C@H](CCCNC(=N)N)NC(=O)[C@@H]1CCCN1C(=O)[C@H](CCCNC(=N)N)NC(=O)[C@@H]1CCCN1C(=O)[C@H](CCCN)NC(=O)[C@H](Cc1ccc(O)cc1)NC(=O)[C@@H](NC(=O)[C@@H]1CCCN1C(=O)[C@H](CCCNC(=N)N)NC(=O)[C@H](CCCN)NC(=O)[C@H](Cc1c[nH]c2ccccc12)NC(=O)[C@H](CCCN)N=C(N(C)C)N(C)C)C(C)C)C(=O)O [Api760, gu-OWORPVYOPRPRPPHPRL-OH, reference compound] ({Orn(α-tetramethylguanidino)}-W[Orn]RPVY[Orn]PRPRPPHPRL-OH)
times more active than Api137 against P. aeruginosa [8]: 16

Molecule: CC[C@H](C)[C@H](NC(=O)[C@H](CCCCN)NC(=O)[C@H](CCC(=O)O)NC(=O)[C@H](CCCCN)NC(=O)[C@H](CO)NC(=O)[C@H](CCCCN)NC(=O)[C@H](CCCNC(=N)N)NC(=O)[C@H](Cc1ccccc1)NC(=O)[C@H](Cc1ccccc1)NC(=O)[C@H](CC(=O)O)NC(=O)CNC(=O)[C@H](CC(C)C)NC(=O)[C@@H](N)CC(C)C)C(=O)NCC(=O)N[C@@H](CCCCN)C(=O)N[C@@H](CCC(=O)O)C(=O)N[C@@H](Cc1ccccc1)C(=O)N[C@@H](CCCCN)C(=O)N[C@@H](CCCNC(=N)N)C(=O)N[C@H](C(=O)N[C@H](C(=O)N[C@@H](CCC(N)=O)C(=O)N[C@@H](CCCNC(=N)N)C(=O)N[C@H](C(=O)N[C@@H](CCCCN)C(=O)N[C@@H](CC(=O)O)C(=O)N[C@@H](Cc1ccccc1)C(=O)N[C@@H](CC(C)C)C(=O)N[C@@H](CCCNC(=N)N)C(=O)N[C@@H](CC(N)=O)C(=O)N[C@@H](CC(C)C)C(=O)N[C@H](C(=O)N1CCC[C@H]1C(=O)N[C@@H](CCCNC(=N)N)C(=O)N[C@H](C(=O)N[C@@H](CCC(=O)O)C(=O)N[C@@H](CO)C(=O)O)[C@@H](C)O)C(C)C)[C@@H](C)CC)C(C)C)[C@@H](C)CC [LL-37, reference compound]
half-life at 0.5 g/L (P. aeruginosa elastase [9]): 3 min
